Reference: PubChem BioAssay (NCI)
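Each compound was tested at five concentrations against cells in 96-well plates for 48 hours. The concentration for full growth arrest is given as TGI.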

Experiments:
Assay in all cases: inhibition of tumour cell growth, NCI panel, 48 h
786-0 renal = tested on: 786-0 renal
A498 renal = tested on: A498 renal
A549 NSCLC = tested on: A549 NSCLC
ACHN renal = tested on: ACHN renal
BT-549 breast = tested on: BT-549 breast
CAKI-1 renal = tested on: CAKI-1 renal
CCRF-CEM leukemia = tested on: CCRF-CEM leukemia
COLO 205 colon = tested on: COLO 205 colon
DU-145 prostate = tested on: DU-145 prostate
EKVX NSCLC = tested on: EKVX NSCLC
HCC-2998 colon = tested on: HCC-2998 colon
HCT-116 colon = tested on: HCT-116 colon
HCT-15 colon = tested on: HCT-15 colon
HL-60(TB) leukemia = tested on: HL-60(TB) leukemia
HOP-62 NSCLC = tested on: HOP-62 NSCLC
HOP-92 NSCLC = tested on: HOP-92 NSCLC
HS 578T breast = tested on: HS 578T breast
HT29 colon = tested on: HT29 colon
IGROV1 ovarian = tested on: IGROV1 ovarian
K-562 leukemia = tested on: K-562 leukemia
KM12 colon = tested on: KM12 colon
LOX IMVI melanoma = tested on: LOX IMVI melanoma
M14 melanoma = tested on: M14 melanoma
MALME-3M melanoma = tested on: MALME-3M melanoma
MCF7 breast = tested on: MCF7 breast
MDA-MB-231 breast = tested on: MDA-MB-231 breast
MDA-MB-435 = tested on: MDA-MB-435
MDA-N = tested on: MDA-N
NCI-H226 lung = tested on: NCI-H226 lung
NCI-H23 lung = tested on: NCI-H23 lung
NCI-H460 lung = tested on: NCI-H460 lung
NCI-H522 lung = tested on: NCI-H522 lung
NCI/ADR-RES ovarian = tested on: NCI/ADR-RES ovarian
OVCAR-3 ovarian = tested on: OVCAR-3 ovarian
OVCAR-4 ovarian = tested on: OVCAR-4 ovarian
OVCAR-5 ovarian = tested on: OVCAR-5 ovarian
OVCAR-8 ovarian = tested on: OVCAR-8 ovarian
PC-3 prostate = tested on: PC-3 prostate
RPMI-8226 leukemia = tested on: RPMI-8226 leukemia
RXF 393 renal = tested on: RXF 393 renal
SF-268 CNS = tested on: SF-268 CNS
SF-295 CNS = tested on: SF-295 CNS
SK-MEL-2 melanoma = tested on: SK-MEL-2 melanoma
SK-MEL-28 melanoma = tested on: SK-MEL-28 melanoma
SK-MEL-5 melanoma = tested on: SK-MEL-5 melanoma
SK-OV-3 ovarian = tested on: SK-OV-3 ovarian
SN12C renal = tested on: SN12C renal
SNB-19 CNS = tested on: SNB-19 CNS
SNB-75 CNS = tested on: SNB-75 CNS
SR leukemia = tested on: SR leukemia
SW-620 colon = tested on: SW-620 colon
T-47D breast = tested on: T-47D breast
TK-10 renal = tested on: TK-10 renal
U251 CNS = tested on: U251 CNS
UACC-257 melanoma = tested on: UACC-257 melanoma
UACC-62 melanoma = tested on: UACC-62 melanoma
UO-31 renal = tested on: UO-31 renal
DLD-1 colon = tested on: DLD-1 colon
DMS 114 small cell lung = tested on: DMS 114 small cell lung
DMS 273 small cell lung = tested on: DMS 273 small cell lung
HOP-18 NSCLC = tested on: HOP-18 NSCLC
KM20L2 colon = tested on: KM20L2 colon
LXFL 529 NSCLC = tested on: LXFL 529 NSCLC
M19-MEL melanoma = tested on: M19-MEL melanoma
MOLT-4 leukemia = tested on: MOLT-4 leukemia
RXF-631 renal = tested on: RXF-631 renal
SF-539 CNS = tested on: SF-539 CNS
SNB-78 CNS = tested on: SNB-78 CNS

CN1CCN(c2nc3c(c(=O)n(C)c(=O)n3C)n2C)CC1
TGI (786-0 renal): > 100 µM
TGI (A498 renal): > 100 µM
TGI (A549 NSCLC): > 100 µM
TGI (ACHN renal): > 100 µM
TGI (BT-549 breast): > 100 µM
TGI (CAKI-1 renal): > 100 µM
TGI (CCRF-CEM leukemia): > 100 µM
TGI (COLO 205 colon): > 100 µM
TGI (DU-145 prostate): > 100 µM
TGI (EKVX NSCLC): > 100 µM
TGI (HCC-2998 colon): > 100 µM
TGI (HCT-116 colon): > 100 µM
TGI (HCT-15 colon): > 100 µM
TGI (HL-60(TB) leukemia): > 100 µM
TGI (HOP-62 NSCLC): > 100 µM
TGI (HOP-92 NSCLC): > 100 µM
TGI (HS 578T breast): > 100 µM
TGI (HT29 colon): > 100 µM
TGI (IGROV1 ovarian): > 100 µM
TGI (K-562 leukemia): > 100 µM
TGI (KM12 colon): > 100 µM
TGI (LOX IMVI melanoma): > 100 µM
TGI (M14 melanoma): > 100 µM
TGI (MALME-3M melanoma): > 100 µM
TGI (MCF7 breast): > 100 µM
TGI (MDA-MB-231 breast): > 100 µM
TGI (MDA-MB-435): > 100 µM
TGI (MDA-N): > 100 µM
TGI (NCI-H226 lung): > 100 µM
TGI (NCI-H23 lung): > 100 µM
TGI (NCI-H460 lung): > 100 µM
TGI (NCI-H522 lung): > 100 µM
TGI (NCI/ADR-RES ovarian): > 100 µM
TGI (OVCAR-3 ovarian): > 100 µM
TGI (OVCAR-4 ovarian): > 100 µM
TGI (OVCAR-5 ovarian): > 100 µM
TGI (OVCAR-8 ovarian): > 100 µM
TGI (PC-3 prostate): > 100 µM
TGI (RPMI-8226 leukemia): > 100 µM
TGI (RXF 393 renal): > 100 µM
TGI (SF-268 CNS): > 100 µM
TGI (SF-295 CNS): > 100 µM
TGI (SK-MEL-2 melanoma): > 100 µM
TGI (SK-MEL-28 melanoma): > 100 µM
TGI (SK-MEL-5 melanoma): > 100 µM
TGI (SK-OV-3 ovarian): > 100 µM
TGI (SN12C renal): > 100 µM
TGI (SNB-19 CNS): > 100 µM
TGI (SNB-75 CNS): > 100 µM
TGI (SR leukemia): > 100 µM
TGI (SW-620 colon): > 100 µM
TGI (T-47D breast): > 100 µM
TGI (TK-10 renal): > 100 µM
TGI (U251 CNS): > 100 µM
TGI (UACC-257 melanoma): > 100 µM
TGI (UACC-62 melanoma): > 100 µM
TGI (UO-31 renal): > 100 µM

CC/C(=C(\c1ccccc1)c1ccc(OCC[N+](C)(C)C)cc1)c1ccccc1
TGI (786-0 renal): 27.9 µM
TGI (A498 renal): 40.6 µM
TGI (A549 NSCLC): 35.3 µM
TGI (ACHN renal): 34.6 µM
TGI (CAKI-1 renal): 32.2 µM
TGI (CCRF-CEM leukemia): 26.1 µM
TGI (COLO 205 colon): 20.4 µM
TGI (DLD-1 colon): 37.9 µM
TGI (DMS 114 small cell lung): 21.7 µM
TGI (DMS 273 small cell lung): 19.9 µM
TGI (EKVX NSCLC): 33 µM
TGI (HCC-2998 colon): 34.2 µM
TGI (HCT-116 colon): 31.7 µM
TGI (HCT-15 colon): 34.1 µM
TGI (HL-60(TB) leukemia): 6.13 µM
TGI (HOP-18 NSCLC): 26.2 µM
TGI (HOP-62 NSCLC): 56.5 µM
TGI (HT29 colon): 29.6 µM
TGI (IGROV1 ovarian): 27.8 µM
TGI (K-562 leukemia): 19.9 µM
TGI (KM12 colon): 29.8 µM
TGI (KM20L2 colon): 31.1 µM
TGI (LOX IMVI melanoma): 27.7 µM
TGI (LXFL 529 NSCLC): 24.6 µM
TGI (M14 melanoma): 30.1 µM
TGI (M19-MEL melanoma): 26.2 µM
TGI (MALME-3M melanoma): 28.6 µM
TGI (MOLT-4 leukemia): 36.4 µM
TGI (NCI-H226 lung): 26.7 µM
TGI (NCI-H460 lung): 37.4 µM
TGI (NCI-H522 lung): 18.7 µM
TGI (OVCAR-3 ovarian): 20.3 µM
TGI (OVCAR-4 ovarian): 30.9 µM
TGI (OVCAR-8 ovarian): 37.9 µM
TGI (RPMI-8226 leukemia): 28.8 µM
TGI (RXF 393 renal): 36.9 µM
TGI (RXF-631 renal): 41 µM
TGI (SF-268 CNS): 32.4 µM
TGI (SF-295 CNS): 33.8 µM
TGI (SF-539 CNS): 40.6 µM
TGI (SK-MEL-2 melanoma): 30.2 µM
TGI (SK-MEL-28 melanoma): 22.2 µM
TGI (SK-MEL-5 melanoma): 16.4 µM
TGI (SK-OV-3 ovarian): 34.5 µM
TGI (SN12C renal): 25.7 µM
TGI (SNB-19 CNS): 37.1 µM
TGI (SNB-75 CNS): 23.9 µM
TGI (SNB-78 CNS): 34.3 µM
TGI (SW-620 colon): 30 µM
TGI (U251 CNS): 29.2 µM
TGI (UACC-257 melanoma): 24.4 µM
TGI (UACC-62 melanoma): 26.8 µM
TGI (UO-31 renal): 38.7 µM
